System: HIV-1 (strain IIIB)
Test: MT4 Cell Antiviral Assay
Type: cell-based
Details: Human immunodeficiency virus 1, 120 h; HIV-1 strain IIIB in MT4 cells, 5 days, Cell Titer-Glo; 50% decrease in HIV-induced cytopathic effect
Method: Antiviral HIV activity and compound-induced cytotoxicity were measured in parallel based on a modified protocol of the propidium iodide based procedure in the human T-cell lymphotropic virus transformed cell line MT4. Aliquots of the test compounds were serially diluted in DMSO plated in 96-well plates. Exponentially growing MT4 cells were harvested and pelleted. Cell pellets were resuspended in fresh medium (RPMI 1640, 10% FCS, and gentamycin. Cell aliquots were infected by the addition of HIV-1 (strain IIIB) diluted to give a viral multiplicity of infection of 300×TCID50/million cells. A similar cell aliquot was diluted with medium to provide a mock-infected control. Cell infection was allowed to proceed for 1 hr at 37° C. in a tissue culture incubator with humidified 5% CO2 atmosphere. After the 1 hr incubation the virus/cell suspensions were diluted with fresh medium, and added to each well of the plate containing pre-diluted compound. Plates were then placed in a tissue culture incubator with humidified 5% CO2 for 5 days. […] The plates were analyzed in an automated plate reader for luminescence.assay. The control and standard used was efavirinz tested over a concentration range of 0.001 to 1 μM in every assay. The expected range of IC50 values for efavirinz is 0.1 to 1 nM.
The antiviral effect of a test compound is reported as an IC50, i.e. the inhibitory concentration that would produce a 50% decrease in the HIV-induced cytopathic effect. This effect is measured by the amount of test compound required to restore 50% of the cell growth of HIV-infected MT4 cells, compared to uninfected MT4 cell controls. IC50 was calculated by RoboSage, Automated Curve Fitting Program.
For each assay plate, the results (of wells containing uninfected cells or infected cells with no compound were averaged, respectively. For measurements of compound-induced cytotoxicty, results from wells containing various compound concentrations and uninfected cells were compared to the average of uninfected cells without compound treatment. Percent of cells remaining is determined by the following formula: Percent of cells remaining=(compound-treated uninfected cells/untreated uninfected cells)×100.
A level of percent of cells remaining of 79% or less indicates a significant level of direct compound-induced cytotoxicity for the compound at that concentration. When this condition occurs the results from the compound-treated infected wells at this concentration are not included in the calculation of IC50.
For measurements of compound antiviral activity, results from wells containing various compound concentrations and infected cells are compared to the average of uninfected and infected cells without compound treatment. Percent inhibition of virus is determined by the following formula: Percent inhibition of virus=(1−((ave. untreated uninfected cells−treated infected cells)/(ave. untreated uninfected cells−ave. untreated infected cells)))×100

SMILES: CC(C)C1=C2[C@H]3CC[C@@H]4[C@@]5(C)CC[C@H](OC(=O)CC(C)(C)C(=O)O)C(C)(C)[C@@H]5CC[C@@]4(C)[C@]3(C)CC[C@@]2(/C=C/C(=O)N[C@H](C)c2ccncn2)CC1=O [Example 9, 4-(((3aS,5aR,5bR,7aR,9S,11aR,11bR,13aS)-1-Isopropyl-5a,5b,8,8,11a-pentamethyl-2-oxo-3a-((E)-3-oxo-3-(((R)-1-(pyrimidin-4-yl)ethyl)amino)prop-1-en-1-yl)-3,3a,4,5,5a,5b,6,7,7a,8,9,10,11,11a,11b,12,13,13a-octadecahydro-2H-cyclopenta[a]chrysen-9-yl)oxy)-2,2-dimethyl-4-oxobutanoic acid]
- IC50: 10 to 250 nM

SMILES: CC(C)C1=C2[C@H]3CC[C@@H]4[C@@]5(C)CC[C@H](OC(=O)CC(C)(C)C(=O)O)C(C)(C)[C@@H]5CC[C@@]4(C)[C@]3(C)CC[C@@]2(/C=C/C(=O)N[C@@H](C)c2ccc(Cl)cc2)CC1=O [Example 6, 4-(((3aS,5aR,5bR,7aR,9S,11aR,11bR,13aS)-3a-((E)-3-(((S)-1-(4-Chlorophenyl)ethyl)amino)-3-oxoprop-1-en-1-yl)-1-isopropyl-5a,5b,8,8,11a-pentamethyl-2-oxo-3,3a,4,5,5a,5b,6,7,7a,8,9,10,11,11a,11b,12,13,13a-octadecahydro-2H-cyclopenta[a]chrysen-9-yl)oxy)-2,2-dimethyl-4-oxobutanoic acid]
- IC50: 10 to 250 nM

SMILES: CC(C)C1=C2[C@H]3CC[C@@H]4[C@@]5(C)CC[C@H](OC(=O)CC(C)(C)C(=O)O)C(C)(C)[C@@H]5CC[C@@]4(C)[C@]3(C)CC[C@@]2(/C=C/C(=O)NC2(c3ccc(Cl)cc3)CC2)CC1=O [Example 1, 4-(((3aS,5aR,5bR,7aR,9S,11aR,11bR,13aS)-3a-((E)-3-((1-(4-Chlorophenyl)cyclopropyl)amino)-3-oxoprop-1-en-1-yl)-1-isopropyl-5a,5b,8,8,11a-pentamethyl-2-oxo-3,3a,4,5,5a,5b,6,7,7a,8,9,10,11,11a,11b,12,13,13a-octadecahydro-2H-cyclopenta[a]chrysen-9-yl)oxy)-2,2-dimethyl-4-oxobutanoic acid]
- IC50: < 10 nM

SMILES: CC(C)C1=C2[C@H]3CC[C@@H]4[C@@]5(C)CC[C@H](OC(=O)CC(C)(C)C(=O)O)C(C)(C)[C@@H]5CC[C@@]4(C)[C@]3(C)CC[C@@]2(/C=C/C(=O)N[C@H](C)c2ccccc2Cl)CC1=O [Example 22, 4-(((3aS,5aR,5bR,7aR,9S,11aR,11bR,13aS)-3a-((E)-3-(((R)-1-(2-Chlorophenyl)ethyl)amino)-3-oxoprop-1-en-1-yl)-1-isopropyl-5a,5b,8,8,11a-pentamethyl-2-oxo-3,3a,4,5,5a,5b,6,7,7a,8,9,10,11,11a,11b,12,13,13a-octadecahydro-2H-cyclopenta[a]chrysen-9-yl)oxy)-2,2-dimethyl-4-oxobutanoic acid]
- IC50: 10 to 250 nM

SMILES: CC(C)C1=C2[C@H]3CC[C@@H]4[C@@]5(C)CC[C@H](OC(=O)CC(C)(C)C(=O)O)C(C)(C)[C@@H]5CC[C@@]4(C)[C@]3(C)CC[C@@]2(/C=C/C(=O)N[C@@H](C)c2ccc(Cl)cn2)CC1=O [Example 3, 4-(((3aS,5aR,5bR,7aR,9S,11aR,11bR,13aS)-3a-((E)-3-(((S)-1-(5-Chloropyridin-2-yl)ethyl)amino)-3-oxoprop-1-en-1-yl)-1-isopropyl-5a,5b,8,8,11a-pentamethyl-2-oxo-3,3a,4,5,5a,5b,6,7,7a,8,9,10,11,11a,1 b,12,13,13a-octadecahydro-2H-cyclopenta[a]chrysen-9-yl)oxy)-2,2-dimethyl-4-oxobutanoic acid]
- IC50: < 10 nM

SMILES: CC(C)C1=C2[C@H]3CC[C@@H]4[C@@]5(C)CC[C@H](OC(=O)CC(C)(C)C(=O)O)C(C)(C)[C@@H]5CC[C@@]4(C)[C@]3(C)CC[C@@]2(/C=C/C(=O)N[C@H](C)c2cccc(Cl)c2)CC1=O [Example 31, 4-(((3aS,5aR,5bR,7aR,9S,11aR,11bR,13aS)-3a-((E)-3-(((R)-1-(3-Chlorophenyl)ethyl)amino)-3-oxoprop-1-en-1-yl)-1-isopropyl-5a,5b,8,8,11a-pentamethyl-2-oxo-3,3a,4,5,5a,5b,6,7,7a,8,9,10,11,11a,11b,12,13,13a-octadecahydro-2H-cyclopenta[a]chrysen-9-yl)oxy)-2,2-dimethyl-4-oxobutanoic acid]
- IC50: 10 to 250 nM

SMILES: CC(C)C1=C2[C@H]3CC[C@@H]4[C@@]5(C)CC[C@H](OC(=O)CC(C)(C)C(=O)O)C(C)(C)[C@@H]5CC[C@@]4(C)[C@]3(C)CC[C@@]2(/C=C/C(=O)NC2(c3ccc(Cl)cn3)CC2)CC1=O [Example 7, 4-(((3aS,5aR,5bR,7aR,9S,11aR,11bR,13aS)-3a-((E)-3-((1-(5-Chloropyridin-2-yl)cyclopropyl)amino)-3-oxoprop-1-en-1-yl)-1-isopropyl-5a,5b,8,8,11a-pentamethyl-2-oxo-3,3a,4,5,5a,5b,6,7,7a,8,9,10,11,11a,11b,12,13,13a-octadecahydro-2H-cyclopenta[a]chrysen-9-yl)oxy)-2,2-dimethyl-4-oxobutanoic acid]
- IC50: < 10 nM

SMILES: C/C(=C\[C@@]12CC[C@]3(C)[C@H](CC[C@@H]4[C@@]5(C)CC[C@H](OC(=O)CC(C)(C)C(=O)O)C(C)(C)[C@@H]5CC[C@]43C)C1=C(C(C)C)C(=O)C2)C(=O)NC1(c2ncc(Cl)cn2)CC1 [Example 28, 4-(((3aS,5aR,5bR,7aR,9S,11aR,11bR,13aS)-3a-((E)-3-((1-(5-Chloropyrimidin-2-yl)cyclopropyl)amino)-2-methyl-3-oxoprop-1-en-1-yl)-1-isopropyl-5a,5b,8,8,11a-pentamethyl-2-oxo-3,3a,4,5,5a,5b,6,7,7a,8,9,10,11,11a,11b,12,13,13a-octadecahydro-2H-cyclopenta[a]chrysen-9-yl)oxy)-2,2-dimethyl-4-oxobutanoic acid]
- IC50: < 10 nM

SMILES: C/C(=C\[C@@]12CC[C@]3(C)[C@H](CC[C@@H]4[C@@]5(C)CC[C@H](OC(=O)CC(C)(C)C(=O)O)C(C)(C)[C@@H]5CC[C@]43C)C1=C(C(C)C)C(=O)C2)C(=O)NC1(c2ccc(Cl)cc2)CC1 [Example 27, 4-(((3aS,5aR,5bR,7aR,9S,11aR,11bR,13aS)-3a-((E)-3-((1-(4-Chlorophenyl)cyclopropyl)amino)-2-methyl-3-oxoprop-1-en-1-yl)-1-isopropyl-5a,5b,8,8,11a-pentamethyl-2-oxo-3,3a,4,5,5a,5b,6,7,7a,8,9,10,11,11a,11b,12,13,13a-octadecahydro-2H-cyclopenta[a]chrysen-9-yl)oxy)-2,2-dimethyl-4-oxobutanoic acid]
- IC50: < 10 nM

SMILES: CC(C)C1=C2[C@H]3CC[C@@H]4[C@@]5(C)CC[C@H](OC(=O)CC(C)(C)C(=O)O)C(C)(C)[C@@H]5CC[C@@]4(C)[C@]3(C)CC[C@@]2(/C=C/C(=O)N[C@@H](C)c2cccc(Cl)c2)CC1=O [Example 23, 4-(((3aS,5aR,5bR,7aR,9S,11aR,11bR,13aS)-3a-((E)-3-(((S)-1-(3-Chlorophenyl)ethyl)amino)-3-oxoprop-1-en-1-yl)-1-isopropyl-5a,5b,8,8,11a-pentamethyl-2-oxo-3,3a,4,5,5a,5b,6,7,7a,8,9,10,11,11a,11b,12,13,13a-octadecahydro-2H-cyclopenta[a]chrysen-9-yl)oxy)-2,2-dimethyl-4-oxobutanoic acid]
- IC50: 10 to 250 nM

SMILES: CC(C)C1=C2[C@H]3CC[C@@H]4[C@@]5(C)CC[C@H](OC(=O)CC(C)(C)C(=O)O)C(C)(C)[C@@H]5CC[C@@]4(C)[C@]3(C)CC[C@@]2(/C=C/C(=O)NCCO)CC1=O [Example 32, 4-(((3aS,5aR,5bR,7aR,9S,11aR,11bR,13aS)-3a-((E)-3-((2-Hydroxyethyl)amino)-3-oxoprop-1-en-1-yl)-1-isopropyl-5a,5b,8,8,11a-pentamethyl-2-oxo-3,3a,4,5,5a,5b,6,7,7a,8,9,10,11,11a,11b,12,13,13a-octadecahydro-2H-cyclopenta[a]chrysen-9-yl)oxy)-2,2-dimethyl-4-oxobutanoic acid]
- IC50: 10 to 250 nM

SMILES: CC(C)C1=C2[C@H]3CC[C@@H]4[C@@]5(C)CC[C@H](OC(=O)CC(C)(C)C(=O)O)C(C)(C)[C@@H]5CC[C@@]4(C)[C@]3(C)CC[C@@]2(/C=C/C(=O)NC2(c3ccccn3)CC2)CC1=O [Example 12, 4-(((3aS,5aR,5bR,7aR,9S,11aR,11bR,13aS)-1-Isopropyl-5a,5b,8,8,11a-pentamethyl-2-oxo-3a-((E)-3-oxo-3-((1-(pyridin-2-yl)cyclopropyl)amino)prop-1-en-1-yl)-3,3a,4,5,5a,5b,6,7,7a,8,9,10,11,11a,11b,12,13,13a-octadecahydro-2H-cyclopenta[a]chrysen-9-yl)oxy)-2,2-dimethyl-4-oxobutanoic acid]
- IC50: < 10 nM

Reference: patent US9340513B2, “Propenoate derivatives of betulin” (GlaxoSmithKline LLC, priority 2011, dated 2016)
